Experimental data published in patent publication US9446044B2, “DYRK1 inhibitors and uses thereof” (DIAXONHIT, priority 2011, dated 2016).

Legend:
[1] = molecular target: DYRK1A (Homo sapiens (Human), UniProt Q13627); experiment: DYRK1A kinase assay (HotSpot, Reaction Biology); assay type: biochemical; conditions: purified recombinant kinase, 10 μM ATP, room temperature 120 min
[2] = molecular target: DYRK1B (Homo sapiens (Human), UniProt Q9Y463); experiment: DYRK1B kinase assay (HotSpot, Reaction Biology); assay type: biochemical; conditions: purified recombinant kinase, 10 μM ATP, room temperature 120 min
Sequence of DYRK1B (Q9Y463 whole entry): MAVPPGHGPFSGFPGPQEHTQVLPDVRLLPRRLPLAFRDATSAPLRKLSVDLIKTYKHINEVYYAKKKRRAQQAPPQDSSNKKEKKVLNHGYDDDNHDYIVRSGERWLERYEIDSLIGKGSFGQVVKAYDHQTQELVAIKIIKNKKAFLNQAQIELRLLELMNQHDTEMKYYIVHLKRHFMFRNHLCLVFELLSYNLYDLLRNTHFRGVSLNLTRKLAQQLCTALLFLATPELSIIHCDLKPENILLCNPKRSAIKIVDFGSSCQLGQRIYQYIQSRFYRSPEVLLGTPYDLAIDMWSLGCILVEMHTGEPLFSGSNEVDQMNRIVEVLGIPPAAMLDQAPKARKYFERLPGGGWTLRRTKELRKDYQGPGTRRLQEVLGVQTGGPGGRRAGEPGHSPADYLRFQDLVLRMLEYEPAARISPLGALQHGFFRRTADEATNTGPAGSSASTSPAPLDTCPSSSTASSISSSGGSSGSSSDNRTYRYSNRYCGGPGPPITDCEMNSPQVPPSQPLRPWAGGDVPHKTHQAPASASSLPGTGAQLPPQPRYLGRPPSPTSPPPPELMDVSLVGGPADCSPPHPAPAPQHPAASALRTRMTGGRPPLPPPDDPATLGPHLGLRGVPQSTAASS

| SMILES | IC50 [1] | IC50 [2] |
| --- | --- | --- |
| COC(=N)c1nc2ccc3ncnc(Nc4ccc(Cl)cc4Cl)c3c2s1 [Compound 72, Methyl 9-(2,4-dichlorophenylamino)thiazolo[5,4-f]quinazoline-2-carbimidate] | 0.22 nM | 0.28 nM |
| COC(=N)c1nc2ccc3ncnc(Nc4ccc(F)cc4F)c3c2s1 [Compound 78, Methyl 9-(2,4-difluorophenylamino)thiazolo[5,4-f]quinazoline-2-carbimidate] | 0.94 nM | 1.07 nM |
| COC(=N)c1nc2ccc3ncnc(Nc4cccc(Cl)c4)c3c2s1 [Compound 75, Methyl 9-(3-chlorophenylamino)thiazolo[5,4-f]quinazoline-2-carbimidate] | 13.6 nM | 18.8 nM |
| N=C(NCc1ccc(F)cc1)c1nc2ccc3ncnc(Nc4ccc(Br)cc4F)c3c2s1 [Compound 16, 9-(4-Bromo-2-fluorophenylamino)-N-(4-fluorobenzyl)thiazolo[5,4-f]quinazoline-2-carboximidamide] | 1000 to 10000 nM |  |
| COC(=N)c1nc2ccc3ncnc(Nc4ccc(N5CCCC5)cc4)c3c2s1 [Compound 77, Methyl 9-(4-(pyrrolidin-1-yl)phenylamino)thiazolo[5,4-f]quinazoline-2-carbimidate] | 54.8 nM | 186 nM |
| N=C(NCCN1CCCCC1)c1nc2ccc3ncnc(Nc4ccc5c(c4)OCO5)c3c2s1 [Compound 30, 9-(Benzo[d][1,3]dioxol-5-ylamino)-N-(2-(piperidin-1-yl)ethyl)thiazolo[5,4-f]quinazoline-2-carboximidamide] | 1000 to 10000 nM |  |
| COC(=N)c1nc2ccc3ncnc(Nc4ccccc4)c3c2s1 [Compound 64, Methyl 9-(phenylamino)thiazolo[5,4-f]quinazoline-2-carbimidate] | 1.81 nM | 3.48 nM |
| CCCCOC(=N)c1nc2ccc3ncnc(Nc4ccc(Cl)cc4Cl)c3c2s1 [Compound 88, butyl 9-((2,4-dichlorophenyl)amino)thiazolo[5,4-f]quinazoline-2-carbimidate] | 47.5 nM | 69.4 nM |
| CCOC(=N)c1nc2ccc3ncnc(Nc4ccc5c(c4)OCO5)c3c2s1 [Compound 82, Ethyl 9-(benzo[d][1,3]dioxol-5-ylamino)thiazolo[5,4-j]quinazoline-2-carbimidate] | 6.02 nM | 7.72 nM |
| N=C(NCc1ccncc1)c1nc2ccc3ncnc(Nc4ccc(Br)cc4F)c3c2s1 [Compound 19, 9-(4-Bromo-2-fluorophenylamino)-N-(pyridin-4-ylmethyl)thiazolo[5,4-f]quinazoline-2-carboximidamide] | 1000 to 10000 nM |  |
| COC(=N)c1nc2ccc3ncnc(Nc4ccc(O)c([N+](=O)[O-])c4)c3c2s1 [Compound 60, Methyl 9-(4-hydroxy-3-nitrophenylamino)thiazolo[5,4-f]quinazoline-2-carbimidate] | 4.91 nM | 5.68 nM |
| COC(=N)c1nc2ccc3ncnc(Nc4ccc(C)cc4)c3c2s1 [Compound 65, Methyl 9-(p-tolylamino)thiazolo[5,4-f]quinazoline-2-carbimidate] | 0.98 nM | 2.83 nM |
| CN(C)CCNC(=N)c1nc2ccc3ncnc(Nc4ccc5c(c4)OCO5)c3c2s1 [Compound 33, 9-(Benzo[d][1,3]dioxol-5-ylamino)-N-(2-(dimethylamino)ethyl)thiazolo[5,4-f]quinazoline-2-carboximidamide] | 431 nM |  |
| COC(=N)c1nc2ccc3ncnc(Nc4ccc(OC)cc4OC)c3c2s1 [Compound 62, Methyl 9-(2,4-dimethoxyphenylamino)thiazolo[5,4-f]quinazoline-2-carbimidate] | 9.53 nM | 11.1 nM |
| NC(=O)c1nc2ccc3ncnc(Nc4ccc(F)cc4Br)c3c2s1 [Compound 86, 9-((2-bromo-4-fluorophenyl)amino)thiazolo[5,4-f]quinazoline-2-carboxamide] | 26.2 nM | 31.5 nM |
| CN(C)C(=N)c1nc2ccc3ncnc(Nc4ccc(F)c(Cl)c4)c3c2s1 [Compound 7, 9-(3-Chloro-4-fluorophenylamino)-N,N-dimethylthiazolo[5,4-f]quinazoline-2-carboximidamide] | 1000 to 10000 nM |  |
| COC(=N)c1nc2ccc3ncnc(Nc4cc(OC)cc(OC)c4)c3c2s1 [Compound 63, Methyl 9-(3,5-dimethoxyphenylamino)thiazolo[5,4-f]quinazoline-2-carbimidate] | 299 nM |  |
| COC(=N)c1nc2ccc3ncnc(Nc4ccc5c(c4)OCO5)c3c2s1 [Compound 48, Methyl 9-(benzo[d][1,3]dioxol-5-ylamino)thiazolo[5,4-f]quinazoline-2-carbimidate] |  | 4.2 nM |
| NC(=O)c1nc2ccc3ncnc(Nc4ccc(Br)cc4F)c3c2s1 [Compound 36, 9-(4-Bromo-2-fluorophenylamino)thiazolo[5,4-f]quinazoline-2-carboxamide] | 194 nM |  |
| COc1ccc(Nc2ncnc3ccc4nc(C5=NCCO5)sc4c23)cc1 [Compound 42, 2-(4,5-dihydrooxazol-2-yl)-N-(4-methoxyphenyl)thiazolo[5,4-f]quinazolin-9-amine] |  | 18700 nM |
| N=C(NCCN1CCOCC1)c1nc2ccc3ncnc(Nc4ccc5c(c4)OCO5)c3c2s1 [Compound 29, 9-(Benzo[d][1,3]dioxol-5-ylamino)-N-(2-morpholinoethyl)thiazolo[5,4-f]quinazoline-2-carboximidamide] | 1000 to 10000 nM |  |
| CN(C)C(=N)c1nc2ccc3ncnc(Nc4ccc(Br)cc4F)c3c2s1 [Compound 14] | 147 nM |  |
| COC(=N)c1nc2ccc3ncnc(Nc4ccc5c(c4)OCCO5)c3c2s1 [Compound 49, Methyl 9-(2,3-dihydrobenzo[b][1,4]dioxin-6-ylamino)thiazolo[5,4-f]quinazoline-2-carbimidate] | 8 nM |  |
| COC(=N)c1nc2ccc3ncnc(Nc4ccc(OC)c(OC)c4)c3c2s1 [Compound 51, Methyl 9-(3,4-dimethoxyphenylamino)thiazolo[5,4-f]quinazoline-2-carbimidate] |  | 161 nM |
| COC(=N)c1nc2ccc3ncnc(Nc4ccc(OC)c([N+](=O)[O-])c4)c3c2s1 [Compound 73, Methyl 9-(4-methoxy-3-nitrophenylamino)thiazolo[5,4-f]quinazoline-2-carbimidate] | 124 nM |  |
| CCN(CC)CCNC(=N)c1nc2ccc3ncnc(Nc4ccc5c(c4)OCO5)c3c2s1 [Compound 34, 9-(Benzo[d][1,3]dioxol-5-ylamino)-N-(2-(diethylamino)ethyl)thiazolo[5,4-f]quinazoline-2-carboximidamide] | 1000 to 10000 nM |  |
| COC(=N)c1nc2ccc3ncnc(Nc4ccc(Cl)c(Cl)c4)c3c2s1 [Compound 57, Methyl 9-(3,4-dichlorophenylamino)thiazolo[5,4-f]quinazoline-2-carbimidate] | 66.8 nM |  |
